Measured values as given in patent US6914045B2, “Glycopeptide antibiotics” (Wyeth Holdings Corporation, priority 2001, dated 2005).

Tests used:
Enterococcus sp. = test: in vitro antibacterial evaluation, MIC by broth dilution; type: cell-based; conditions: broth dilution, 18 hours at 35° C.
In short: (§1)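 Inoculum 5×10^5 CFU/mL; concentrations 64 to 0.06 μg/mL; MIC defined as lowest inhibitory level. Conducted by broth dilution under NCCLS guidelines.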

Staphylococcus sp. = test: as above; type: cell-based; conditions: broth dilution, 18 hours at 35° C.; for MIC Staphylococcus aureus (ATCC 29213): strain ATCC 29213; for MIC Staphylococcus aureus (GC 1131): strain GC 1131; for MIC Staphylococcus aureus (GC 3051): strain GC 3051; for MIC Staphylococcus aureus (GC 3053): strain GC 3053; for MIC Staphylococcus aureus (GC 4541): strain GC 4541; for MIC Staphylococcus aureus (GC 4542): strain GC 4542; for MIC Staphylococcus aureus-SMITH (GC 4543): strain GC 4543; for MIC Staphylococcus aureus (GC 4544): strain GC 4544; for MIC Staphylococcus aureus (GC 4545): strain GC 4545; for MIC Staphylococcus haemolyticus (GC 4546): strain GC 4546; for MIC Coagulase Negative Staphylococcus (GC 4547): strain GC 4547; for MIC Coagulase Negative Staphylococcus (GC 4548): strain GC 4548; for MIC Coagulase Negative Staphylococcus (GC 4549): strain GC 4549; for MIC Coagulase Negative Staphylococcus (GC 4551): strain GC 4551
In short: as §1

Streptococcus sp. = test: as above; type: cell-based; conditions: broth dilution, 18 hours at 35° C.
In short: as §1

[1] = anatomic pathology (histopathology of heart and kidney) in mice; type: in vivo; conditions: CD-1 mice, 20 mg/kg intravenously daily for 9 days, necropsy day 10, microscopic histopathology
Method: Samples of tissues from necropsied mice were formalin-fixed, paraffin-embedded, sectioned, stained with hematoxylin and eosin, and examined microscopically. Histopathologic findings were recorded. These findings were subjectively graded on a scale corresponding to slight, mild, moderate, marked and severe as compared to untreated controls.

Escherichia coli = test: in vitro antibacterial evaluation, MIC by broth dilution; type: cell-based; conditions: 18 hours at 35° C.
In short: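 Broth dilution in Muller-Hinton II medium per NCCLS standard M7-A2, with an inoculum of 5×10^5 CFU/mL and antibiotic tested over 64-0.06 μg/mL. MIC was taken as the lowest concentration inhibiting visible growth.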

[2] = Enterococcus faecalis (ATCC 29212)
[3] = Enterococcus faecalis (GC 4552)
[4] = Enterococcus faecalis (GC 4553)
[5] = Enterococcus faecalis (GC 4554)
[6] = Enterococcus faecalis (GC 6189)

CC(c1ccccc1)C1NC(=O)CNC(=O)C(CO)NC(=O)C(C(O)C2CN(Cc3ccc(-c4ccccc4)cc3)C(=N)N2C2OC(CO)C(O)C(O)C2O)NC(=O)C(C(O)C2CNC(=N)N2)NC(=O)C(Cc2ccc(OC3OC(CO)C(OC4OC(CO)C(O)C(O)C4O)C(O)C3O)cc2)NC1=O (centres unmarked) [Example 66a]
++: Anatomical Pathology (Day 10), Kidney [1]
8 µg/mL: MIC Escherichia coli (GC 4560) (Escherichia coli)
0: Anatomical Pathology (Day 10), Heart [1]
128 µg/mL: MIC Enterococcus avium (GC 4558) (Enterococcus sp.; Enterococcus avium (GC 4558)) | MIC Enterococcus avium (GC 4558) (Enterococcus sp.)
>128 µg/mL: MIC Enterococcus faecalis (ATCC 29212) (Enterococcus sp.; [2]) | MIC Enterococcus faecalis (GC 4552) (Enterococcus sp.; [3]) | MIC Enterococcus faecalis (GC 4553) (Enterococcus sp.; [4]) | MIC Enterococcus faecalis (GC 4554) (Enterococcus sp.; [5]) | MIC Enterococcus faecalis (GC 6189) (Enterococcus sp.; [6]) | MIC Enterococcus faecium (GC 2243) (Enterococcus sp.; Enterococcus faecium (GC 2243)) | MIC Enterococcus faecium (GC 4556) (Enterococcus sp.; Enterococcus faecium (GC 4556)) | MIC Enterococcus faecium (GC 4557) (Enterococcus sp.; Enterococcus faecium (GC 4557)) | MIC Enterococcus faecalis (ATCC 29212) (Enterococcus sp.) | MIC Enterococcus faecalis (GC 2242) (Enterococcus sp.) | MIC Enterococcus faecalis (GC 2691) (Enterococcus sp.) | MIC Enterococcus faecalis (GC 3059) (Enterococcus sp.) | MIC Enterococcus faecalis (GC 4552) (Enterococcus sp.) | MIC Enterococcus faecalis (GC 4553) (Enterococcus sp.) | MIC Enterococcus faecalis (GC 4554) (Enterococcus sp.) | MIC Enterococcus faecalis (GC 6189) (Enterococcus sp.) | MIC Enterococcus faecium (GC 2243) (Enterococcus sp.) | MIC Enterococcus faecium (GC 4556) (Enterococcus sp.) | MIC Enterococcus faecium (GC 4557) (Enterococcus sp.) | MIC Enterococcus faecalis (GC 2242) (Enterococcus sp.; strain GC 2242) | MIC Enterococcus faecalis (GC 2691) (Enterococcus sp.; strain GC 2691) | MIC Enterococcus faecalis (GC 3059) (Enterococcus sp.; strain GC 3059) | MIC Staphylococcus aureus (ATCC 29213) (Staphylococcus sp.) | MIC Staphylococcus aureus (GC 1131) (Staphylococcus sp.) | MIC Staphylococcus aureus (GC 3051) (Staphylococcus sp.) | MIC Staphylococcus aureus (GC 3053) (Staphylococcus sp.) | MIC Staphylococcus aureus (GC 4541) (Staphylococcus sp.) | MIC Staphylococcus aureus (GC 4542) (Staphylococcus sp.) | MIC Staphylococcus aureus-SMITH (GC 4543) (Staphylococcus sp.) | MIC Staphylococcus aureus (GC 4544) (Staphylococcus sp.) | MIC Staphylococcus aureus (GC 4545) (Staphylococcus sp.) | MIC Staphylococcus haemolyticus (GC 4546) (Staphylococcus sp.) | MIC Coagulase Negative Staphylococcus (GC 4547) (Staphylococcus sp.) | MIC Coagulase Negative Staphylococcus (GC 4548) (Staphylococcus sp.) | MIC Coagulase Negative Staphylococcus (GC 4549) (Staphylococcus sp.) | MIC Coagulase Negative Staphylococcus (GC 4551) (Staphylococcus sp.) | MIC Streptococcus agalactiae (GC 4564) (Streptococcus sp.) | MIC Streptococcus pneumoniae (ATCC 6301) (Streptococcus sp.) | MIC Streptococcus pneumoniae (GC 1894) (Streptococcus sp.) | MIC Streptococcus pneumoniae (GC 4565) (Streptococcus sp.) | MIC Streptococcus pyogenes (GC 4563) (Streptococcus sp.) | MIC Streptococcus pneumoniae (ATCC 6301) (Streptococcus sp.; strain ATCC 6301) | MIC Streptococcus pneumoniae (GC 1894) (Streptococcus sp.; strain GC 1894) | MIC Streptococcus pyogenes (GC 4563) (Streptococcus sp.; strain GC 4563) | MIC Streptococcus agalactiae (GC 4564) (Streptococcus sp.; strain GC 4564) | MIC Streptococcus pneumoniae (GC 4565) (Streptococcus sp.; strain GC 4565) | MIC Escherichia coli (ATCC 25922) (Escherichia coli) | MIC Escherichia coli (GC 4559) (Escherichia coli)

CC(c1ccccc1)C1NC(=O)CNC(=O)C(CO)NC(=O)C(C(O)C2CN(Cc3ccc4ccccc4c3)C(=N)N2C2OC(CO)C(O)C(O)C2O)NC(=O)C(C(O)C2CNC(=N)N2)NC(=O)C(Cc2ccc(OC3OC(CO)C(OC4OC(CO)C(O)C(O)C4O)C(O)C3O)cc2)NC1=O (stereo not drawn) [Example 67, Cyclo[glycyl-β-methylphenylalanyl-O-(4-O-hexopyranosylhexoyranosyl)tyrosyl-3-(2-iminoimidazolidin-4-yl)seryl-3-[3-hexopyranosyl-2-imino-1-(2-naphthylmethyl)-imidazolidin-4-yl]-serylseryl]]
0: Anatomical Pathology (Day 10), Heart [1] | Anatomical Pathology (Day 10), Kidney [1]
32 µg/mL: MIC Escherichia coli (GC 4560) (Escherichia coli)
>128 µg/mL: MIC Enterococcus faecalis (GC 4554) (Enterococcus sp.; [5]) | MIC Enterococcus faecium (GC 2243) (Enterococcus sp.; Enterococcus faecium (GC 2243)) | MIC Enterococcus faecium (GC 4556) (Enterococcus sp.; Enterococcus faecium (GC 4556)) | MIC Enterococcus faecalis (GC 4554) (Enterococcus sp.) | MIC Enterococcus faecium (GC 2243) (Enterococcus sp.) | MIC Enterococcus faecium (GC 4556) (Enterococcus sp.) | MIC Staphylococcus aureus (ATCC 29213) (Staphylococcus sp.) | MIC Staphylococcus aureus (GC 1131) (Staphylococcus sp.) | MIC Staphylococcus aureus (GC 3051) (Staphylococcus sp.) | MIC Staphylococcus aureus (GC 3053) (Staphylococcus sp.) | MIC Staphylococcus aureus (GC 4541) (Staphylococcus sp.) | MIC Staphylococcus aureus (GC 4542) (Staphylococcus sp.) | MIC Staphylococcus aureus-SMITH (GC 4543) (Staphylococcus sp.) | MIC Staphylococcus aureus (GC 4544) (Staphylococcus sp.) | MIC Staphylococcus aureus (GC 4545) (Staphylococcus sp.) | MIC Staphylococcus haemolyticus (GC 4546) (Staphylococcus sp.) | MIC Coagulase Negative Staphylococcus (GC 4548) (Staphylococcus sp.) | MIC Coagulase Negative Staphylococcus (GC 4549) (Staphylococcus sp.) | MIC Coagulase Negative Staphylococcus (GC 4551) (Staphylococcus sp.) | MIC Coagulase Negative Staphylococcus (GC 6257) (Staphylococcus sp.; strain GC 6257) | MIC Escherichia coli (ATCC 25922) (Escherichia coli) | MIC Escherichia coli (GC 4559) (Escherichia coli)
64 µg/mL: MIC Enterococcus avium (GC 4558) (Enterococcus sp.; Enterococcus avium (GC 4558)) | MIC Enterococcus avium (GC 4558) (Enterococcus sp.) | MIC Streptococcus pneumoniae (GC 1894) (Streptococcus sp.) | MIC Streptococcus pneumoniae (GC 1894) (Streptococcus sp.; strain GC 1894)
128 µg/mL: MIC Enterococcus faecalis (ATCC 29212) (Enterococcus sp.; [2]) | MIC Enterococcus faecalis (GC 4552) (Enterococcus sp.; [3]) | MIC Enterococcus faecalis (GC 4553) (Enterococcus sp.; [4]) | MIC Enterococcus faecalis (GC 6189) (Enterococcus sp.; [6]) | MIC Enterococcus faecium (GC 4557) (Enterococcus sp.; Enterococcus faecium (GC 4557)) | MIC Enterococcus faecalis (ATCC 29212) (Enterococcus sp.) | MIC Enterococcus faecalis (GC 2242) (Enterococcus sp.) | MIC Enterococcus faecalis (GC 2691) (Enterococcus sp.) | MIC Enterococcus faecalis (GC 3059) (Enterococcus sp.) | MIC Enterococcus faecalis (GC 4552) (Enterococcus sp.) | MIC Enterococcus faecalis (GC 4553) (Enterococcus sp.) | MIC Enterococcus faecalis (GC 6189) (Enterococcus sp.) | MIC Enterococcus faecium (GC 4557) (Enterococcus sp.) | MIC Enterococcus faecalis (GC 2242) (Enterococcus sp.; strain GC 2242) | MIC Enterococcus faecalis (GC 2691) (Enterococcus sp.; strain GC 2691) | MIC Enterococcus faecalis (GC 3059) (Enterococcus sp.; strain GC 3059) | MIC Coagulase Negative Staphylococcus (GC 4547) (Staphylococcus sp.) | MIC Streptococcus agalactiae (GC 4564) (Streptococcus sp.) | MIC Streptococcus pneumoniae (ATCC 6301) (Streptococcus sp.) | MIC Streptococcus pneumoniae (GC 4565) (Streptococcus sp.) | MIC Streptococcus pyogenes (GC 4563) (Streptococcus sp.) | MIC Streptococcus pneumoniae (ATCC 6301) (Streptococcus sp.; strain ATCC 6301) | MIC Streptococcus pyogenes (GC 4563) (Streptococcus sp.; strain GC 4563) | MIC Streptococcus agalactiae (GC 4564) (Streptococcus sp.; strain GC 4564) | MIC Streptococcus pneumoniae (GC 4565) (Streptococcus sp.; strain GC 4565)
